Test system: IL-8
Experiment: IL-8 levels in TNF-α treated HaCaT cells (EE, fractions, pure compounds)
Format: cell-based, human
Details: for reduction of IL-8 levels by individual pure compounds: tested separately at the concentration present in comb-1, HaCaT
Protocol: After incubation, cell excitation was performed with recombinant human tumor necrosis factor-α (TNF-α, PeproTech, 300-01A, USA). Cultures in each well were treated with a final concentration of 50 ng/mL of TNFα and 50 μL plant extract. Three different controls were included in all experiments: (a) non-treated cells, with neither TNF-α nor plant extracts, (b) cells treated with TNF-α alone, (c) cells treated with TNF-α and the solvent (7% ethanol). The supernatant was collected, and the level of IL-8 was measured 16 h post-treatment using the commercial Human CXCL8/IL-8 DuoSet ELISA kit (R&D Systems, DY208-05, USA) according to the manufacturer's protocol. IL-8 is a common biomarker for inflammatory skin diseases. 16 h of TNF-α exposure induce IL-8 levels. Dexamethasone (Sigma-Aldrich, D4902, USA) was used as a positive control.

Compound | reduction of IL-8 levels by individual pure compounds | IL-8, % of TNF-α activated cells (100 μM, HaCaT) [%] | level of IL-8 (100 μM, TNF-α 50 ng/mL, 16 h, HaCaT) [pg/mL] | IL-8 levels (17.6 μg/mL) | IL-8 reduction activity (all examined concentrations of pure standard)
O=C(O)c1cc(O)c(O)c(O)c1 [gallic acid] | inactive for reduction of IL-8 levels | – | – | – | –
C[C@@H]1C[C@H]2[C@@H]3CCC4=CC(=O)C=C[C@]4(C)[C@@]3(F)[C@@H](O)C[C@]2(C)[C@@]1(O)C(=O)CO [dexamethasone, Dexamethasone] | – | 59.4 | 104.0 ± 3.0 | – | –
catechin | inactive for reduction of IL-8 levels | – | – | – | –
Oc1cc(O)c2c(c1)O[C@H](c1cc(O)c(O)c(O)c1)[C@H](O)C2 [EGC, (−)-Epigallocatechin] | inactive for reduction of IL-8 levels | – | – | led to increased IL-8 levels | None of the examined concentrations of pure standard EGC showed any significant IL-8 reduction activity
